Tests used:
[1] = test system: Rhipicephalus sanguineus (Brown Dog Tick); assay: Method A: contact activity against ticks; type: in vivo; conditions: 48 h; for LC50: read-out: LD50; for pest or weed control at 25 µg/mL: read-out: control of Rhipicephalus sanguineus
Text: • Method of Use Examples Method A: Screening Method to Test Contact Activity of Compounds Against Ticks
A solution of the test compound was used to coat the inner wall of glass vials and to treat two filter papers. Once dried, one filter paper was placed in the cap of the vial and the other in the bottom of the vial. Each treated vial was infested with 10 adult Rhipicephalus sanguineus (Brown Dog Tick). Contact of the ticks with residues was induced by holding the vials in a controlled environment (24° C., 90-95% relative humidity) and assessment was performed at 24, 48 hours after application in comparison with untreated controls.

[2] = test system: green peach aphid (Myzus persicae); assay: Method J: Myzus persicae test (spray application); type: in vivo; conditions: concentration of 500 g/ha, spray on infected Chinese cabbage leaf-disks
Text: Method J: Myzus persicae Test (Spray Application)
100% means that all aphids have been killed; 0% means that none of the aphids have been killed.

[3] = test system: western flower thrips (Frankliniella occidentalis); assay: Method L: Frankliniella occidentalis test (spray application); type: in vivo; conditions: concentration of 500 g/ha, spray on French bean leaf-disks
Text: Method L: Frankliniella occidentalis Test (Spray Application)
French bean (Phaseolus vulgaris) leaf-disks are sprayed with a test solution containing the desired concentration of the active ingredient. Once dry, the leaf disks are infested with western flower thrips (Frankliniella occidentalis).
100% means that all the thrips have been killed; 0% means that none of the thrips have been killed.

[4] = cited from earlier work
[5] = test system: two spotted spidermite (Tetranychus urticae); assay: Method K: Tetranychus urticae test; OP-resistant (spray application); conditions: read-out: activity (mortality in %), Tetranychus urticae
Method: Method K: Tetranychus urticae Test; OP-Resistant (Spray Application)
French beans (Phaseolus vulgaris) which are heavily infested with all stages of the two spotted spidermite (Tetranychus urticae), are sprayed with a preparation of the active ingredient at the desired concentration.
After the specified period of time, mortality in % is determined. 100% means that all spider mites have been killed and 0% means that none of the spider mites have been killed.

[6] = test system: fall armyworm larvae (Spodoptera frugiperda); assay: Method I: Spodoptera frugiperda test (spray application); type: in vivo; conditions: concentration of 500 g/ha, spray on maize leaf sections
Text: Method I: Spodoptera frugiperda Test (Spray Application)
Maize (Zea mais) leaf sections are sprayed with a preparation of the active ingredient of the desired concentration. Once dry, the leaf sections are infested with fall armyworm larvae (Spodoptera frugiperda).

[7] = test system: am. serpentine leaf miner (Liriomyza trifolii); assay: Method M: Liriomyza trifolii test (spray application); type: in vivo; conditions: concentration of 500 g/ha, spray on infested French bean leaf-disks
Text: Method M: Liriomyza trifolii Test (Spray Application)
French bean (Phaseolus vulgaris) leaf-disks infested with larvaes of the am. serpentine leaf miner (Liriomyza trifolii) are sprayed with a test solution containing the desired concentration of the active ingredient.
100% means that all the leaf miners have been killed; 0% means that none of the leaf miners have been killed.

Ctenocephalides felis = assay: Method B: contact activity against fleas; type: in vivo; conditions: 72 hours assessment
Method: Method B: Screening Method to Test Contact Activity of Compounds Against Fleas
A solution of the test compound was dispensed, using a pipette, onto filter paper placed into a glass vial. The filter paper was allowed to dry before infesting each vial with 10 adult Ctenocephalides felis. The treated Ctenocephalides felis were held in a controlled environment (24° C., 90-95% relative humidity) and assessment was performed at 24, 48 and 72 hours after application in comparison with untreated controls.

SMILES	LC50 [1] [µg/mL]	pest or weed control at 25 µg/mL [1] [%]	mortality at 500 g/ha [2] [%]	mortality at 500 g/ha [3] [%]	oral LD50 [4]	mortality at 100 g/ha [5] [%]	mortality at 500 g/ha [6] [%]	mortality at 500 g/ha [7] [%]	LD50 (Ctenocephalides felis)
Cc1cc(C(F)(F)F)cc(Cl)c1-n1nc(C#N)c(SC(F)(F)F)c1C [Compound 43, 1-(2-chloro-6-methyl-4-trifluoromethylphenyl)-3-cyano-5-methyl-4-trifluoromethylthiopyrazole]	< 6	≥ 80	≥ 80						
Cc1c(SC(F)(F)F)c(C#N)nn1-c1c(F)cc(C(F)(F)F)cc1F [Compound 6, 3-cyano-1-(2,6-difluoro-4-trifluoromethylphenyl)-5-methyl-4-trifluoromethylthiopyrazole]	< 6	≥ 80	≥ 80	≥ 80					
N#Cc1ccc(CC(=NNC(=O)Nc2ccc(OC(F)(F)F)cc2)c2cccc(C(F)(F)F)c2)cc1 (mixture of isomers) [Metaflumizone]					> 5,000 mg/kg				
N#Cc1nn(-c2c(F)cc(C(F)(F)F)cc2Cl)c(CF)c1SC(F)(F)F [Compound 8, 1-(2-Chloro-6-fluoro-4-trifluoromethylphenyl)-3-cyano-5-fluoromethyl-4-trifluoromethylthiopyrazole]	< 6	≥ 80	≥ 80	≥ 80					
Cc1c([S+]([O-])C(F)(F)F)c(C#N)nn1-c1ccc(C(F)(F)F)cc1F (stereo not shown) [Compound 14, 3-Cyano-1-(2-fluoro-4-trifluoromethylphenyl)-5-methyl-4-trifluoromethylsulfinylpyrazole]	< 6	≥ 80	≥ 80			≥ 80			
Cc1c([S+]([O-])C(F)(F)F)c(C#N)nn1-c1c(F)cc(C(F)(F)F)cc1Cl (stereo not shown) [Compound 9, 1-(2-Chloro-6-fluoro-4-trifluoromethylphenyl)-3-cyano-5-methyl-4-trifluoromethylsulfinylpyrazole]	< 6	≥ 80	≥ 80	≥ 80					
Cc1c(SC(F)(F)F)c(C#N)nn1-c1c(Cl)cc(OC(F)(F)F)cc1Cl [Compound 17, 3-Cyano-1-(2,6-dichloro-4-trifluoromethoxyphenyl)-5-methyl-4-trifluoromethylthiopyrazole]	< 6	≥ 80	≥ 80						
N#Cc1nn(-c2c(Cl)cc(C(F)(F)F)cc2Cl)c(CF)c1[S+]([O-])C(F)(F)F (stereo not shown) [Compound 10, 3-Cyano-1-(2,6-dichloro-4-trifluoromethylphenyl)-5-fluoromethyl-4-trifluoromethylsulfinylpyrazole]	< 6	≥ 80	≥ 80	≥ 80			≥ 80	≥ 80	
N#Cc1nn(-c2c(Cl)cc(C(F)(F)F)cc2Cl)c(N)c1[S+]([O-])C(F)(F)F (stereo not shown) [fipronil]									around 20 ppm
N#Cc1nn(-c2c(F)cc(C(F)(F)F)cc2Cl)c(CF)c1[S+]([O-])C(F)(F)F (stereo not shown) [Compound 11, 1-(2-Chloro-6-fluoro-4-trifluoromethylphenyl)-3-cyano-5-fluoromethyl-4-trifluoromethylsulfinylpyrazole]	< 6	≥ 80	≥ 80						
Cc1c(SC(F)(F)F)c(C#N)nn1-c1c(F)cc(C(F)(F)F)cc1Cl [Compound 7, 1-(2-Chloro-6-fluoro-4-trifluoromethylphenyl)-3-cyano-5-methyl-4-trifluoromethylthiopyrazole]	< 6	≥ 80	≥ 80	≥ 80					
N#Cc1nn(-c2c(Cl)cc(C(F)(F)F)cc2Cl)c(CF)c1SC(F)(F)F [Compound 3, 3-cyano-1-(2,6-dichloro-4-trifluoromethylphenyl)-5-fluoromethyl-4-trifluoromethylthiopyrazole]	< 6	≥ 80	≥ 80	≥ 80					
Cc1c([S+]([O-])C(F)(F)F)c(C#N)nn1-c1c(F)cc(C(F)(F)F)cc1F (stereo not shown) [Compound 12, 3-Cyano-1-(2,6-difluoro-4-trifluoromethylphenyl)-5-methyl-4-trifluoromethylsulfinylpyrazole]	< 6	≥ 80	≥ 80	≥ 80					
Cc1c(SC(F)(F)F)c(C#N)nn1-c1c(Cl)cc(C(F)(F)F)cc1Cl [Compound 1, 3-Cyano-1-(2,6-dichloro-4-trifluoromethylphenyl)-5-methyl-4-trifluoromethylthiopyrazole]	< 6	≥ 80	≥ 80	≥ 80					
Cc1cc(C(F)(F)F)cc(Cl)c1-n1nc(C#N)c([S+]([O-])C(F)(F)F)c1C (stereo not shown) [Compound 44, 1-(2-Chloro-6-methyl-4-trifluoromethylphenyl)-3-cyano-5-methyl-4-trifluoromethylsulfinylpyrazole]	< 6	≥ 80	≥ 80	≥ 80					
N#Cc1nn(-c2c(Cl)cc(OC(F)(F)F)cc2Cl)c(CF)c1SC(F)(F)F [Compound 16, 3-Cyano-1-(2,6-dichloro-4-trifluoromethoxyphenyl)-5-fluoromethyl-4-trifluoromethylthiopyrazole]	< 6	≥ 80	≥ 80	≥ 80					
Cc1c([S+]([O-])C(F)(F)F)c(C#N)nn1-c1c(Cl)cc(C(F)(F)F)cc1Cl (stereo not shown) [Compound 5, 3-cyano-1-(2,6-dichloro-4-trifluoromethylphenyl)-5-methyl-4-trifluoromethylsulfinylpyrazole]	< 6	≥ 80	≥ 80	≥ 80			≥ 80		
N#Cc1nn(-c2c(Cl)cc(OC(F)(F)F)cc2Cl)c(CF)c1[S+]([O-])C(F)(F)F (stereo not shown) [Compound 18, 3-Cyano-1-(2,6-dichloro-4-trifluoromethoxyphenyl)-5-fluoromethyl-4-trifluoromethylsulfinylpyrazole]	< 6	≥ 80	≥ 80						
Cc1c(S(=O)(=O)C(F)(F)F)c(C#N)nn1-c1c(Cl)cc(C(F)(F)F)cc1Cl [Compound 4, 3-cyano-1-(2,6-dichloro-4-trifluoromethylphenyl)-5-methyl-4-trifluoromethylsulfonylpyrazole]	< 6	≥ 80	≥ 80	≥ 80					
Cc1c([S+]([O-])C(F)(F)F)c(C#N)nn1-c1c(Cl)cc(OC(F)(F)F)cc1Cl (stereo not shown) [Compound 19, 3-Cyano-1-(2,6-dichloro-4-trifluoromethoxyphenyl)-5-methyl-4-trifluoromethylsulfinylpyrazole]	< 6	≥ 80	≥ 80	≥ 80					

— US9339033B2, “1-aryl-5-alkyl pyrazole derivative compounds, processes of making and methods of using thereof” (MERIAL, INC., priority 2007, dated 2016)
